Assay results published in patent US4060603A, “Histidine derivatives” (Reckitt & Colman Products Limited, priority 1975, dated 1977).

Tested on: reserpine induced hypothermia
Assay: reversal of reserpine induced hypothermia test in mice
Type: in vivo

## C[C@H]1CCN(C(=O)[C@H](Cc2c[nH]cn2)NC(=O)[C@@H]2CCC(=O)N2)[C@@H]1C(N)=O [Example 1, L-Pyroglutamyl-L-histidyl-trans-3-methyl-L-prolineamide]
Fully reserpinised mice, over 4 hours, P < 0.05, Mann Whitney U test
  calorigenic effect in reversal of reserpine induced hypothermia: significant
mice, doses 1-30 mg/Kg p.o.
  potency relative to TRH (times more potent): 3-4 time
